Test results reported in publication PMC9015526, “Mass Spectrometric Assays Reveal Discrepancies in Inhibition Profiles for the SARS‐CoV‐2 Papain‐Like Protease” (Chemmedchem, 2022).
Several values for one entry are separate records, joined by “and”; a condition that tells them apart may be missing. Equal values may be shown once. Read-outs that look alike come from different tables or passages of the source.

Tests used:
SARS‐CoV‐2 PL^pro [1] = target: T1, SARS‐CoV‐2 PL^pro (Severe acute respiratory syndrome coronavirus 2, UniProt P0DTD1); settings: Fluorescence, cited from earlier work
SARS‐CoV‐2 PL^pro [2] = target: T1, SARS‐CoV‐2 PL^pro; test: biochemical
SARS‐CoV‐2 PL^pro [3] = target: T1, SARS‐CoV‐2 PL^pro; settings: read-out: Reported IC50, cited from earlier work
[4] = 0.2 μM PL^pro, 2.0 μM nsp2/3 peptide 2, 50 mM Tris pH 8.0, n=2, mean±SD, read-out: SPE‐MS IC50

Compound	PL^pro inhibition in SPE‐MS assay (in words) (SARS‐CoV‐2 PL^pro [2])	IC50 (SARS‐CoV‐2 PL^pro [2]; SPE‐MS IC50)	other results
Cbz‐RLRGG‐Amc			Km (SARS‐CoV‐2 PL^pro [1]; ref 14): 6.9 ± 1.4 µM; Km (SARS‐CoV‐2 PL^pro [1]; ref 18): 70.9 ± 10.2 µM
CCOC(=O)C[C@H](NC(=O)[C@H](C)NC(=O)[C@@H](NC(=O)OCc1ccccc1)C(C)C)C(=O)COC(=O)c1c(Cl)cccc1Cl [SDZ‐224015]	does not inhibit		IC50 (SARS‐CoV‐2 PL^pro [2]; [4]): > 50 µM
Cc1cc(O)c2c(=O)c3c(O)cc(O)c4c5c(O)cc(O)c6c(=O)c7c(O)cc(C)c8c1c2c(c34)c(c78)c65 [Hypericin]	did not inhibit	> 50 µM	
Cc1ccc(-n2sc3ccccc3c2=O)cc1 [PBIT, 2‐(para‐tolyl)benzo[d]isothiazol‐3(2H)‐one]		~0.3 µM and 0.3 µM	
CC(=O)OC[C@H]1O[C@@H]([S-])[C@H](OC(C)=O)[C@@H](OC(C)=O)[C@@H]1OC(C)=O.CCP(CC)CC.[Au+] [auranofin]	potently inhibit		
COCCn1c2c([n+](Cc3cnccn3)c1C)C(=O)c1ccccc1C2=O [YM‐155, sepantronium bromide]		> 50 µM	
COc1cc2ncnc(Nc3ccc(F)c(Cl)c3)c2cc1NC(=O)/C=C/CN1CCCCC1 [dacomitinib]	inactive		IC50 (SARS‐CoV‐2 PL^pro [2]; [4]): > 50 µM; IC50 (SARS‐CoV‐2 PL^pro [3]; FRET‐based assays, ref 8b): 3 to 5 µM
CC(=O)Nc1ccc(C)c(C(=O)N[C@H](C)c2cccc3ccccc23)c1 [PL^pro inhibitor 6]		~12.5 µM and 12.5 µM	
CC(C)(F)C[C@H](N[C@@H](c1ccc(-c2ccc(S(C)(=O)=O)cc2)cc1)C(F)(F)F)C(=O)NC1(C#N)CC1 [MK‐0822, odanacatib]	does not inhibit		IC50 (SARS‐CoV‐2 PL^pro [2]; [4]): > 50 µM
C[C@H]1COC2=C1C(=O)C(=O)c1c2ccc2c1CCCC2(C)C [cryptotanshinone]	did not, at least efficiently, inhibit		
CN(C)C/C=C/C(=O)Nc1cc2c(Nc3ccc(F)c(Cl)c3)ncnc2cc1O[C@H]1CCOC1 [afatinib]	inactive	> 50 µM	IC50 (SARS‐CoV‐2 PL^pro [3]): 11 to 16 µM
